Where a name gives a salt, the structure may show the parent alone.
Experiments:
Assay type in all cases: physicochemical
[1] = SIF buffer solubility panel (FaSSIF, FeSSIF, FaSSGF)
[2] = Equilibrium humidity evaluation 75% RH/40° C., 10 days (Example 8, Experiment 6); conditions: for change in chemical purity (trended HPLC): after 10 days; for powder diffraction pattern versus input (form stability): t=5 days and t=10 days
How it was run: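 Tabernanthalog salt powders (100 mg) were spread evenly in open vials and held at 40 °C and 75% RH. Sub-samples taken at 5 and 10 days were analysed by ^1H NMR, HPLC, XRPD, DSC, TGA and PLM for phase change, chemical degradation and residual solvent.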

[3] = Dynamic vapour sorption (DVS) of selected salts (Example 8)
How it was run: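 Sorption/desorption isotherms on 20–50 mg sample at 25°C after 60 min at 0% RH: 5% steps to 30%, 10% steps to 90%, then reverse. Equilibrium criterion dm/dt 0.002%/min; kinetic and isotherm curves derived.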

[4] = DVS analyses of sorbate salt Form A / Form C (Example 10)
Text: DVS analyses of Form A (Performed on batch reference: Experiment 11-Sample -A1) To determine whether Form A underwent form change at high % RH, DVS residues of Form A, from 0 to 80% RH and 0 to 90% RH, were examined. The specimens were equilibrated to constant mass, at 80% and 90% RH set-points, removed, placed in a capped vial, and analysed by XRPD and DSC. Based on the SC-XRD at 100 K, no regular voids in the crystal structure were large enough to accommodate non-crystal-bonded, molecular water with minimum probe radius of 1.4 Å.
The moisture sorption properties of the feed API were analysed by DVS Intrinsic instrument (Surface Measurement System). Approximately 20 to 50 mg of API was weighed onto an aluminium pan and loaded into the instrument equilibrated at 25° C. The sample was equilibrated under a dry atmosphere (0% relative humidity) for 60 minutes, before increasing the humidity from 0% to 30% at 5% step increment and from 30% to 90% at 10% step increment. A desorption cycle was also applied from 90% to 30% (10% step decrement) and from 30% to 0% (5% step decrement). A rate of change in mass per time unit (dm/dt) of 0.002%/min was set as the equilibrium parameter. Kinetic and isotherm graphs were calculated.
5. DVS Analyses: 0% to 90% DVS Mass Per Unit Time Equilibrated at Dm/Dt (0.0002%/Min)

[5] = 75% RH/40° C., listed as Tabernanthalog sorbate salt (Form A)

COc1ccc2c3c([nH]c2c1)CCN(C)CC3 [tabernanthalog sorbate salt]
solubility in FaSSGF ([1]; FaSSGF, 37° C., up to 24 h (timepoints t=0, 1 h, 3 h, 6 h, 24 h)): remained suspended
disproportionation in the SIF buffers ([1]; SIF buffers): no observed disproportionation
solubility in the SIF buffers ([1]; SIF buffers overall): highly soluble in the SIF buffers (apart from FaSSGF)
CP (chemical purity) after storage ([2]; 75% RH at 40° C., 10 days): 99.70 % area
change in chemical purity (trended HPLC) ([2]; 75% RH/40° C.): did not reduce significantly
change in chemical purity (trended HPLC) [2, 5]: lowest decrease in chemical purity
change in chemical purity (trended HPLC) ([2]; 75% RH/40° C., listed as tabernanthalog sorbate): lowest decrease in chemical purity
water uptake / hydrate formation (TGA, DSC) ([2]; 75% RH/40° C., t=5 d and t=10 d): did not exhibit any water absorption events
powder diffraction pattern versus input (form stability) ([2]; 75% RH/40° C.): matched the diffractogram of the input material
powder diffraction pattern versus input (form stability) [2, 5]: Form A was stable
Tabernanthalog RRT = 1.00 (trended HPLC data, chemical purity) ([2]; Sorbate salt, input before humidity exposure): 99.76
CP (chemical purity) before storage ([2]; input of 6-D): 99.76 % area
DVS sorption/desorption isotherm ([3]; 0 to 90 to 0% RH, 25° C., dm/dt 0.002%/min): slightly hygroscopic up to 80% RH
DVS 0 to 90 to 0% RH (dm/dt <0.002%), mass change ([3]; desorption, 0.0% RH): −0.06%
DVS mass change ([3]; desorption, 0.0% RH, listed as tabernanthalog sorbate salt (Form A)): 0.06%
DVS mass change ([3]; desorption, 0.0% RH, listed as tabernanthalog sorbate salt (Form I)): −0.06%
DVS 0 to 90 to 0% RH (dm/dt <0.002%), mass change ([3]; desorption, 5.0% RH): −0.05%
DVS mass change ([3]; desorption, 5.0% RH, listed as tabernanthalog sorbate salt (Form A)): 0.05%
DVS mass change ([3]; desorption, 5.0% RH, listed as tabernanthalog sorbate salt (Form I)): −0.05%
DVS 0 to 90 to 0% RH (dm/dt <0.002%), mass change ([3]; desorption, 10.0% RH): −0.04%
DVS mass change ([3]; desorption, 10.0% RH, listed as tabernanthalog sorbate salt (Form A)): 0.04%
DVS mass change ([3]; desorption, 10.0% RH, listed as tabernanthalog sorbate salt (Form I)): −0.04%
DVS 0 to 90 to 0% RH (dm/dt <0.002%), mass change ([3]; desorption, 15.0% RH): −0.03%
DVS mass change ([3]; desorption, 15.0% RH, listed as tabernanthalog sorbate salt (Form A)): 0.03%
DVS mass change ([3]; desorption, 15.0% RH, listed as tabernanthalog sorbate salt (Form I)): −0.03%
DVS 0 to 90 to 0% RH (dm/dt <0.002%), mass change ([3]; desorption, 20.0% RH): −0.02%
DVS mass change ([3]; desorption, 20.0% RH, listed as tabernanthalog sorbate salt (Form A)): 0.02%
DVS mass change ([3]; desorption, 20.0% RH, listed as tabernanthalog sorbate salt (Form I)): −0.02%
DVS 0 to 90 to 0% RH (dm/dt <0.002%), mass change ([3]; desorption, 25.0% RH): −0.007%
DVS mass change ([3]; desorption, 25.0% RH, listed as tabernanthalog sorbate salt (Form A)): 0.00%
DVS mass change ([3]; desorption, 25.0% RH, listed as tabernanthalog sorbate salt (Form I)): −0.007%
DVS 0 to 90 to 0% RH (dm/dt <0.002%), mass change ([3]; desorption, 30.0% RH): 0.00%
DVS mass change ([3]; desorption, 30.0% RH): 0.00%
DVS 0 to 90 to 0% RH (dm/dt <0.002%), mass change ([3]; desorption, 40.0% RH): 0.03%
DVS mass change ([3]; desorption, 40.0% RH): 0.03%
DVS 0 to 90 to 0% RH (dm/dt <0.002%), mass change ([3]; desorption, 50.0% RH): 0.06%
DVS mass change ([3]; desorption, 50.0% RH): 0.06%
DVS 0 to 90 to 0% RH (dm/dt <0.002%), mass change ([3]; desorption, 60.0% RH): 0.18%
DVS mass change ([3]; desorption, 60.0% RH): 0.18%
DVS 0 to 90 to 0% RH (dm/dt <0.002%), mass change ([3]; desorption, 70.0% RH): 0.30%
DVS mass change ([3]; desorption, 70.0% RH): 0.30%
DVS 0 to 90 to 0% RH (dm/dt <0.002%), mass change ([3]; desorption, 80.0% RH): 0.48%
DVS mass change ([3]; desorption, 80.0% RH): 0.48%
DVS 0 to 90 to 0% RH (dm/dt <0.002%), mass change ([3]; desorption, 90.0% RH): 0.98%
DVS mass change ([3]; desorption, 90.0% RH): 0.98%
DVS 0 to 90 to 0% RH (dm/dt <0.002%), mass change ([3]; sorption, 0.0% RH): 0.00%
DVS mass change ([3]; sorption, 0.0% RH, dm/dt<0.002%): 0.00%
DVS 0 to 90 to 0% RH (dm/dt <0.002%), mass change ([3]; sorption, 5.0% RH): 0.0%
DVS mass change ([3]; sorption, 5.0% RH): 0.0%
DVS 0 to 90 to 0% RH (dm/dt <0.002%), mass change ([3]; sorption, 10.0% RH): 0.01%
DVS mass change ([3]; sorption, 10.0% RH): 0.01%
DVS 0 to 90 to 0% RH (dm/dt <0.002%), mass change ([3]; sorption, 15.0% RH): 0.01%
DVS mass change ([3]; sorption, 15.0% RH): 0.01%
DVS 0 to 90 to 0% RH (dm/dt <0.002%), mass change ([3]; sorption, 20.0% RH): 0.02%
DVS mass change ([3]; sorption, 20.0% RH): 0.02%
DVS 0 to 90 to 0% RH (dm/dt <0.002%), mass change ([3]; sorption, 25.0% RH): 0.03%
DVS mass change ([3]; sorption, 25.0% RH): 0.03%
DVS 0 to 90 to 0% RH (dm/dt <0.002%), mass change ([3]; sorption, 30.0% RH): 0.03%
DVS mass change ([3]; sorption, 30.0% RH): 0.03%
DVS 0 to 90 to 0% RH (dm/dt <0.002%), mass change ([3]; sorption, 40.0% RH): 0.05%
DVS mass change ([3]; sorption, 40.0% RH): 0.05%
DVS 0 to 90 to 0% RH (dm/dt <0.002%), mass change ([3]; sorption, 50.0% RH): 0.07%
DVS mass change ([3]; sorption, 50.0% RH): 0.07%
DVS 0 to 90 to 0% RH (dm/dt <0.002%), mass change ([3]; sorption, 60.0% RH): 0.10%
DVS mass change ([3]; sorption, 60.0% RH): 0.10%
DVS 0 to 90 to 0% RH (dm/dt <0.002%), mass change ([3]; sorption, 70.0% RH): 0.14%
DVS mass change ([3]; sorption, 70.0% RH): 0.14%
DVS 0 to 90 to 0% RH (dm/dt <0.002%), mass change ([3]; sorption, 80.0% RH): 0.21%
DVS mass change ([3]; sorption, 80.0% RH): 0.21%
DVS 0 to 90 to 0% RH (dm/dt <0.002%), mass change ([3]; sorption, 90.0% RH): 0.98%
DVS mass change ([3]; sorption, 90.0% RH): 0.98%
DVS isotherm ([4]; 0% to 90% DVS, mass per unit time equilibrated at dm/dt (0.0002%/min)): slightly hygroscopic up to 80% RH
DVS 0 to 90 to 0% RH (dm/dt <0.002%) ([4]; RH 0.0, falling leg (90 to 0)): 0.0 (0.06%)
DVS 0 to 90 to 0% RH (dm/dt <0.002%) ([4]; RH 0.0, rising leg (0 to 90)): DVS 0 to 90 to 0% RH (dm/dt <0.002%): 0.0 (0.00%),
DVS 0 to 90 to 0% RH (dm/dt <0.002%) ([4]; RH 5.0, falling leg (90 to 0)): 0.05%
DVS 0 to 90 to 0% RH (dm/dt <0.002%) ([4]; RH 5.0, rising leg (0 to 90)): 0.0%
DVS 0 to 90 to 0% RH (dm/dt <0.002%) ([4]; RH 10.0, falling leg (90 to 0)): 0.04%
DVS 0 to 90 to 0% RH (dm/dt <0.002%) ([4]; RH 10.0, rising leg (0 to 90)): 0.01%
DVS 0 to 90 to 0% RH (dm/dt <0.002%) ([4]; RH 15.0, falling leg (90 to 0)): 0.03%
DVS 0 to 90 to 0% RH (dm/dt <0.002%) ([4]; RH 15.0, rising leg (0 to 90)): 0.01%
DVS 0 to 90 to 0% RH (dm/dt <0.002%) ([4]; RH 20.0, falling leg (90 to 0)): 0.02%
DVS 0 to 90 to 0% RH (dm/dt <0.002%) ([4]; RH 20.0, rising leg (0 to 90)): 0.02%
DVS 0 to 90 to 0% RH (dm/dt <0.002%) ([4]; RH 25.0, falling leg (90 to 0)): 0.00%
DVS 0 to 90 to 0% RH (dm/dt <0.002%) ([4]; RH 25.0, rising leg (0 to 90)): 0.03%
DVS 0 to 90 to 0% RH (dm/dt <0.002%) ([4]; RH 30.0, falling leg (90 to 0)): 0.00%
DVS 0 to 90 to 0% RH (dm/dt <0.002%) ([4]; RH 30.0, rising leg (0 to 90)): 0.03%
DVS 0 to 90 to 0% RH (dm/dt <0.002%) ([4]; RH 40.0, falling leg (90 to 0)): 0.03%
DVS 0 to 90 to 0% RH (dm/dt <0.002%) ([4]; RH 40.0, rising leg (0 to 90)): 0.05%
DVS 0 to 90 to 0% RH (dm/dt <0.002%) ([4]; RH 50.0, falling leg (90 to 0)): 0.06%
DVS 0 to 90 to 0% RH (dm/dt <0.002%) ([4]; RH 50.0, rising leg (0 to 90)): 0.07%
DVS 0 to 90 to 0% RH (dm/dt <0.002%) ([4]; RH 60.0, falling leg (90 to 0)): 0.18%
DVS 0 to 90 to 0% RH (dm/dt <0.002%) ([4]; RH 60.0, rising leg (0 to 90)): 0.10%
DVS 0 to 90 to 0% RH (dm/dt <0.002%) ([4]; RH 70.0, falling leg (90 to 0)): 0.30%
DVS 0 to 90 to 0% RH (dm/dt <0.002%) ([4]; RH 70.0, rising leg (0 to 90)): 0.14%
DVS 0 to 90 to 0% RH (dm/dt <0.002%) ([4]; RH 80.0, falling leg (90 to 0)): 0.48%
DVS 0 to 90 to 0% RH (dm/dt <0.002%) ([4]; RH 80.0, rising leg (0 to 90)): 0.21%
DVS 0 to 90 to 0% RH (dm/dt <0.002%) ([4]; RH 90.0, falling leg (90 to 0)): 0.98%
DVS 0 to 90 to 0% RH (dm/dt <0.002%) ([4]; RH 90.0, rising leg (0 to 90)): 0.98%
form of specimens retrieved post DVS (XRPD) ([4]; at 0%, 80% and 90% RH): consistent with Form A
water affinity ([4]; up to 90% RH (DVS)): ca. 1 % w/w

— US20230257385A1, “SALT AND SOLID FORMS OF TABERNANTHALOG” (priority 2021, published 2023)
